The values below are quoted from earlier work in publication PMC3616063, “Genomic and Structural Characterization of Kunitz-Type Peptide LmKTT-1a Highlights Diversity and Evolution of Scorpion Potassium Channel Toxins” (PLoS ONE, 2013).

One data set has as its system Herg channels. Conditions: ref [11]. The source says:
(§1) Over the last 400 million years, scorpions have evolved many peptide toxins that target different potassium channels. Numerous potassium channel toxins have been isolated from scorpions including those identified by proteomic and transcriptome analysis of scorpion venom glands [2]–[4]. These toxins are divided into α-KTx, β-KTx, γ-KTx, and κ-KTx subfamilies based on their similarity, [6]. Some of the toxins are specific inhibitors that serve as useful pharmacological tools and candidate drugs that target various potassium channels. Examples include charybdotoxin (ChTX), ...

The subject of the next data set is Kv1.3. Conditions: ref [8].
Text: as §1

The subject of the next data set is BKCa channels. Conditions: ref [8].
Text: as §1

For the next data set, the system named is IKCa channels. Conditions: ref [10].
Text: as §1

The subject of the next data set is SKCa channels. Conditions: ref [9].
Text: as §1

With “BeKm-1: scorpion toxin which inhibits Herg channels (RPTDIKCSESYQCFPVCKSRFGKTNGRCVNGFCDCF; UniProt Q9BKB7 22-57, looked up)”, the Herg channel inhibition entry with Herg channels is reported as “inhibits Herg channels”.

charybdotoxin [charybdotoxin (ChTX)]: the Kv1.3 channel targeting entry in the data set on Kv1.3 is recorded as “targeted toward Kv1.3”. In the data set on BKCa channels, the BKCa channel targeting entry was “targeted toward Kv1.3 and BKCa channels”.

Turning to “maurotoxin (VSCTGSKDCYAPCRKQTGCPNAKCINKSCKCYGC; UniProt P80719 1-34, looked up) [maurotoxin (MTX)]”, in the data set on IKCa channels, the IKCa channel targeting entry is on record as “targeted toward IKCa channels”.

On to “scyllatoxin (AFCNLRMCQLSCRSLGLLGKCIGDKCECVKH; UniProt P16341 1-31, looked up) [scyllatoxin (ScyTx)]”, for which, in the data set on SKCa channels, the SKCa channel inhibition entry was “inhibits SKCa channels”.
